Experimental data taken from patent US4328242A, “α-(3,4,5-Trimethoxyhenzoyl)thiopropionyl-glycine” (Ausoria Farmaceutici S.r.l., priority 1980, dated 1982).

Legend:
[1] = tested on: rabbits; test: Subchronic toxicity, rectal route; type: in vivo; conditions: eight consecutive weeks
[2] = tested on: dogs; test: Chronic toxicity in dogs; type: in vivo; conditions: 24 weeks, 125 and 250 mg/kg oral, 200 mg/kg by inhalation
Description: The chronic toxicity of TBPG has been investigated in rats and dogs treated for a period of 24 weeks with 125 mg/kg and 250 mg/kg by the oral route and 200 mg/kg by inhalation.

[3] = tested on: New Zealand rabbits; test: Toxicity in the fetus, rabbits; type: in vivo; conditions: female rabbits, daily oral and subcutaneous, 250 and 500 mg/kg, twenty eight days of gestation
Text: Toxicity in the fetus of TBPG has been studied in albino Sprague-Dawley rats and in New Zealand rabbits. In the case of rats both male and female, the treatment has been initiated four weeks prior to coupling and then has been continued only in the females during the twenty days of gestation.
In the case of female rabbits, the treatment has been carried out during the twenty eight days of gestation.

[4] = tested on: anaesthesized cats; test: Pharmacodynamics in anaesthesized cats; type: in vivo; conditions: up to 50 mg/kg intravenously
[5] = tested on: rats; test: Protective action on chronic bronchitis induced by inhalation of SO2; type: in vivo; conditions: SO2 aerosol, 100 and 400 mg/kg oral, rectal and inhalation, two weeks
Description: Bronchopulmonary lesions were induced in the animals by aerosolization of SO2. The animals were then treated for two weeks with TBPG in the dosage of 100 and 400 mg/kg by the oral route, rectal route and by inhalation.

[6] = tested on: rabbits; test: Secretory activity in rabbits (bronchial secretion); type: in vivo
Text: This activity has been determined using the method described by E. M. Boyd and C. F. Boyd, modified by P. C. Braga, et al described in Bronchial Hypersecretion, 1973. This activity has been determined every hour for a period of four hours by measuring the amount of bronchial secretion derived from the laryngo-tracheal organs and from the tracheo-bronchial organs of rabbits.

[7] = tested on: rats; test: Bronchosecretolithic activity in rats (sodium fluorescine method); type: in vivo; conditions: 300 mg/kg intraperitoneally
Description: The secretolithic activity of TBPG has been determined in comparison to α-mercaptopropionylglycine by administering 300 mg/kg of the substance intraperitonally and comparing with 135 mg/kg of α-mercaptopropionylglycine administered also intraperitoneally. The doses are equimolar. The method is based on the use of sodium fluorescine described by H. M. Mawatari (Experimental Studies on the Expectorant Action of Several Drugs, Kogoshima Daigakeu Igakeu Zasshi 27, 561, 1976).

[8] = tested on: guinea pigs; test: Antibronchospastic activity, histamine aerosol; type: in vivo; conditions: oral, rectal or inhalation, 200 and 400 mg/kg
Text: Histamine administered in the form of an aerosol has caused in guinea pigs symptoms of broncho-spasm accompanied by convulsions, irreversible collapse and death.

[9] = tested on: rats; test: Action on the period of sleep induced by barbiturates; type: in vivo; conditions: rats intoxicated with CCl4; 200 and 400 mg/kg orally, two days; clear correlation between dosage and effect
Description: The activity of TBPG administered for two days in the dose of 200 and 400 mg/kg orally, has been determined on the basis of the reduction of the period of sleep induced by Nembutal on rats intoxicated with CCl4.

[10] = Stability to light; type: physicochemical; conditions: powder form, light of a 60 watt lamp, three months
[11] = Stability to moisture; type: physicochemical; conditions: open vials, 90% relative humidity, a month
Description: Samples of TBPG and MPG have been maintained in open vials at room temperature under conditions of 90% relative humidity and at 50° C. always with 90% relative humidity. After a month of exposure, the following observations have been made.

[12] = Stability in reducing medium (SO2); type: physicochemical; conditions: 25 mg/ml, sodium bisulfite calculated as SO2, refluxed three hours
Description: In the presence of SO2 --solutions containing 25 mg/ml of TBPG and MPG respectively in the presence of sodium bisulfite calculated as SO2 are warmed and refluxed for a period of three hours.

[13] = Solubility; type: physicochemical
Text: The structure of the compound is confirmed by analytical and spectroscopic analysis, specifically IR and NMR spectra. The compound is in the form of a white micro-cyrstalline powder, odorless and almost tasteless. It is soluble in a saturated solution of sodium bicarbonate and in other basic solutions. The substance is insoluble in water, soluble in warm ethanol.

[14] = with respect to the control animals

For COc1cc(C(=O)SC(C)C(=O)NCC(=O)O)cc(OC)c1OC (stereo not drawn) [TBPG, α-(3,4,5-trimethoxybenzoyl)thiopropionylglycine], the “hematochemical data, hepatic and renal functions, autopsies and macro/microscopic controls of the main organs” value ([1]; 400 mg/kg per day) was “have not shown any variations from the normal”, the “behavior and body growth of the animals” value ([1]; two suppositories per day equal to 400 mg/kg) was “has not caused any irregularities” and the “chronic toxicity (symptoms, behavior, deaths, body growth, hematology, hepatic and renal functions, organs)” value [2] was “totally innocuous”. For the same compound, the “toxicity in the fetus (deformation, number and weight of living offspring)” value [3] was “has not induced any deformation in the fetus and has not affected the number and the weight of the living offspring”, the arterial pressure [4] was “low and temporary reduction” and the “cardiac frequency, respiratory dynamics and electrocardiogram” value [4] was “without any effect”. The tolerance [4] was “very high tolerance”, the “protection of the bronchi and lungs (bronchopulmonary lesions and mortality)” value [5] was “significant action in the protection of the bronchi and lungs” and the laryngo-bronchial secretion ([6]; oral, rectal or inhalation, 50 and 200 mg/kg, every hour for four hours) was “increase in a significant manner and proportionally to the dosage”. The laryngo-tracheal secretion [6, 14] was “equal to the activity of α-mercaptopropionylglycine”, the tracheo-bronchial secretion [6, 14] was “more substantial activity” and the bronchosecretolithic activity [7] was 34.4%. The “period of time between administration of the histamine aerosol and appearance of bronchospastic symptoms” value [8] was “increased very substantially”, the “reduction of the period of sleep induced by Nembutal” value [9] was “very substantial” and the stability to light [10] was “undergoes no change”. For the same compound, the stability to moisture ([11]; 50° C.) was “slight yellow color, but no degradation products”, the stability to moisture ([11]; room temperature (t.a.)) was “no decomposition” and the “stability in reducing medium” value [12] was “undergoes no physico-chemical change or organoleptic change”. The solubility ([13]; saturated solution of sodium bicarbonate and other basic solutions) was “soluble”, the solubility ([13]; warm ethanol) was “soluble” and the solubility ([13]; water) was “insoluble”.
